# Counter-ions that a name gives are not always drawn.
# Tests used:
# [1] = tested on: female patients with IBS (non-constipated); assay: Relief of IBS symptoms in double-blind, placebo controlled clinical trials of alosetron, stratified by 5HTT genotype; format: in vivo, human; conditions: in each of the three 5HTT genotypes
# From the text: FIG. 1 is a graph based on data collected from female patients enrolled in clinical trials of alosetron for the treatment of IBS. The study population was comprised of non-constipated individuals with IBS. The subjects were divided into 5HTT genotypes. Of the 219 subjects, 71(32.4%) were genotype del/del (deletion/deletion, alternatively denoted as “1/1”) 5HTT, 75 (34.2%) were genotype del/ins (deletion/insertion, alternatively denoted as “1/2”) 5HTT and 73 (33.3%) were genotype ins/ins (insert/insert, alternatively denoted as “2/2”) 5HTT. […] “Response” was defined as relief of IBS symptoms (abdominal pain and discomfort) during six weeks of a twelve week treatment study. Two hundred and nineteen subjects, received either alosetron (102 subjects) or matched placebo (117 subjects). The proportion of patients achieving response following treatment with alosetron was 68% (21/31) for del/del 5HTT, 64% (21/33) for del/ins 5HTT and 58% (22/38) for ins/ins 5HTT. The proportion of patients achieving response following treatment with placebo was 58% (23/40) for del/del 5HTT, 38% (16/42) for del/ins 5HTT and 34% (12/35) for ins/ins 5HTT. […]
# The subjects' response to alosetron in the clinical trial setting was reviewed and correlated with genotype. […] The incidence of various other effects, including constipation, was also recorded. […]
# [2] = tested on: patients with Irritable Bowel Syndrome (IBS); conditions: double blind, placebo controlled studies; cited from earlier work
smiles,measurement,setting,value
"Cc1[nH]cnc1CN1CCc2c(c3ccccc3n2C)C1=O [alosetron, Alosetron hydrochloride]",effectiveness compared with placebo in relieving IBS symptoms,[1],more effective than placebo
same,effect on pain and bowel function in patients with IBS,[2],reduce pain and improve bowel function

# — patent US20040039554A1, “Iterative analysis of non-responding population in the design of pharmacogenetic studies” (priority 2000, published 2004)
